Measured values published in ChEMBL document CHEMBL3994622, “Design and synthesis of new RAF kinase-inhibiting antiproliferative quinoline derivatives. Part 2: Diarylurea derivatives” (Eur J Med Chem, 2017).

Key:
Format in all cases: functional
RXF 393 [1] = assay: Growth inhibition of human RXF393 cells assessed as cell growth at 10 uM incubated for 48 hrs by sulforhodamine B assay relative to control; details: RXF 393, 48 h, read-out: Activity
CCRF-CEM = assay: Growth inhibition of human CCRF-CEM cells assessed as cell growth at 10 uM incubated for 48 hrs by sulforhodamine B assay relative to control; details: read-out: Activity
NCI-H322M = assay: Growth inhibition of human NCI-H322M cells incubated for 48 hrs by sulforhodamine B assay
RPMI-8226 = assay: Growth inhibition of human RPMI8226 cells assessed as cell growth at 10 uM incubated for 48 hrs by sulforhodamine B assay relative to control; details: RPMI-8226, 48 h, read-out: Activity
PC-3 = assay: Growth inhibition of human PC3 cells assessed as cell growth at 10 uM incubated for 48 hrs by sulforhodamine B assay relative to control; details: PC-3, 48 h, read-out: Activity
SR = assay: Growth inhibition of human SR cells incubated for 48 hrs by sulforhodamine B assay
SW-620 = assay: Growth inhibition of human SW620 cells assessed as cell growth at 10 uM incubated for 48 hrs by sulforhodamine B assay relative to control; details: SW-620, 48 h, read-out: Activity
UACC-62 [2] = assay: Growth inhibition of human UACC62 cells incubated for 48 hrs by sulforhodamine B assay; details: UACC-62, 48 h
SF-295 = assay: Growth inhibition of human SF295 cells assessed as cell growth at 10 uM incubated for 48 hrs by sulforhodamine B assay relative to control; details: SF-295, 48 h, read-out: Activity
LOX IMVI = assay: Growth inhibition of human LOXIMVI cells assessed as cell growth at 10 uM incubated for 48 hrs by sulforhodamine B assay relative to control; details: read-out: Activity
UACC-62 [3] = assay: Growth inhibition of human UACC62 cells assessed as cell growth at 10 uM incubated for 48 hrs by sulforhodamine B assay relative to control; details: UACC-62, 48 h, read-out: Activity
ACHN = assay: Growth inhibition of human ACHN cells assessed as cell growth at 10 uM incubated for 48 hrs by sulforhodamine B assay relative to control; details: read-out: Activity
MDA-MB-468 = assay: Growth inhibition of human MDA-MB-468 cells assessed as cell growth at 10 uM incubated for 48 hrs by sulforhodamine B assay relative to control; details: MDA-MB-468, 48 h, read-out: Activity
EKVX [4] = assay: Growth inhibition of human EKVX cells incubated for 48 hrs by sulforhodamine B assay
HT-29 = assay: Growth inhibition of human HT-29 cells assessed as cell growth at 10 uM incubated for 48 hrs by sulforhodamine B assay relative to control; details: HT-29, 48 h, read-out: Activity
HOP-62 = assay: Growth inhibition of human HOP62 cells assessed as cell growth at 10 uM incubated for 48 hrs by sulforhodamine B assay relative to control; details: HOP-62, 48 h, read-out: Activity
M14 = assay: Growth inhibition of human M14 cells assessed as cell growth at 10 uM incubated for 48 hrs by sulforhodamine B assay relative to control; details: M14, 48 h, read-out: Activity
KM12 [5] = assay: Growth inhibition of human KM12 cells incubated for 48 hrs by sulforhodamine B assay; details: KM12, 48 h
UO-31 = assay: Growth inhibition of human UO31 cells assessed as cell growth at 10 uM incubated for 48 hrs by sulforhodamine B assay relative to control; details: UO-31, 48 h, read-out: Activity
EKVX [6] = assay: Growth inhibition of human EKVX cells assessed as cell growth at 10 uM incubated for 48 hrs by sulforhodamine B assay relative to control; details: read-out: Activity
COLO 205 = assay: Growth inhibition of human COLO205 cells incubated for 48 hrs by sulforhodamine B assay; details: COLO 205, 48 h
MDA-MB-231 = assay: Growth inhibition of human MDA-MB-231 cells assessed as cell growth at 10 uM incubated for 48 hrs by sulforhodamine B assay relative to control; details: MDA-MB-231, 48 h, read-out: Activity
A498 = assay: Growth inhibition of human A498 cells assessed as cell growth at 10 uM incubated for 48 hrs by sulforhodamine B assay relative to control; details: A498, 48 h, read-out: Activity
SNB-19 = assay: Growth inhibition of human SNB19 cells assessed as cell growth at 10 uM incubated for 48 hrs by sulforhodamine B assay relative to control; details: SNB-19, 48 h, read-out: Activity
IGROV-1 = assay: Growth inhibition of human IGROV1 cells assessed as cell growth at 10 uM incubated for 48 hrs by sulforhodamine B assay relative to control; details: IGROV-1, 48 h, read-out: Activity
Malme-3M = assay: Growth inhibition of human MALME-3M cells assessed as cell growth at 10 uM incubated for 48 hrs by sulforhodamine B assay relative to control; details: read-out: Activity
MCF7 = assay: Growth inhibition of human MCF7 cells incubated for 48 hrs by sulforhodamine B assay; details: MCF7, 48 h
NCI-H522 = assay: Growth inhibition of human NCI-H522 cells assessed as cell growth at 10 uM incubated for 48 hrs by sulforhodamine B assay relative to control; details: NCI-H522, 48 h, read-out: Activity
NCI-H226 = assay: Growth inhibition of human NCI-H226 cells assessed as cell growth at 10 uM incubated for 48 hrs by sulforhodamine B assay relative to control; details: NCI-H226, 48 h, read-out: Activity
KM12 [7] = assay: Growth inhibition of human KM12 cells assessed as cell growth at 10 uM incubated for 48 hrs by sulforhodamine B assay relative to control; details: KM12, 48 h, read-out: Activity
RXF 393 [8] = assay: Growth inhibition of human RXF393 cells incubated for 48 hrs by sulforhodamine B assay; details: RXF 393, 48 h
SK-MEL-5 = assay: Growth inhibition of human SK-MEL-5 cells assessed as cell growth at 10 uM incubated for 48 hrs by sulforhodamine B assay relative to control; details: SK-MEL-5, 48 h, read-out: Activity
K562 = assay: Growth inhibition of human K562 cells assessed as cell growth at 10 uM incubated for 48 hrs by sulforhodamine B assay relative to control; details: K562, 48 h, read-out: Activity
[9] = read-out: LC50 (the source's name)

COc1cc2cc(Oc3ccc(NC(=O)Nc4ccc(Cl)c(C(F)(F)F)c4)cc3)c(C)nc2cc1OC
growth at 10 µM (RXF 393 [1]): -33.4% | growth at 10 µM (CCRF-CEM): -17.6% | GI50 (NCI-H322M): 2.05 µM | TGI (NCI-H322M): 6.28 µM | CC50 (NCI-H322M; [9]): 16.3 µM | growth at 10 µM (RPMI-8226): -26.4% | growth at 10 µM (PC-3): -0.61% | GI50 (SR): 0.831 µM | TGI (SR): 2.65 µM | CC50 (SR; [9]): > 32.5 µM | growth at 10 µM (SW-620): 7.51% | GI50 (UACC-62 [2]): 1.24 µM | TGI (UACC-62 [2]): 6.01 µM | CC50 (UACC-62 [2]; [9]): 18.4 µM | growth at 10 µM (SF-295): -70.9% | growth at 10 µM (LOX IMVI): -81.3% | growth at 10 µM (UACC-62 [3]): -51.5% | growth at 10 µM (ACHN): 13.6% | growth at 10 µM (MDA-MB-468): -42.7% | GI50 (EKVX [4]): 1.01 µM | LC50 (concentration killing 50% of cells) (EKVX [4]): 17.6 µM | TGI (EKVX [4]): 3.75 µM | growth at 10 µM (HT-29): -24.9% | growth at 10 µM (HOP-62): -51% | growth at 10 µM (M14): -73.7% | GI50 (KM12 [5]): 1.07 µM | TGI (KM12 [5]): 3.85 µM | CC50 (KM12 [5]; [9]): 13.8 µM | growth at 10 µM (UO-31): -45.1% | growth at 10 µM (EKVX [6]): 8.83% | GI50 (COLO 205): 0.66 µM | TGI (COLO 205): 1.31 µM | CC50 (COLO 205; [9]): 2.59 µM | growth at 10 µM (MDA-MB-231): -50.6% | growth at 10 µM (A498): 10.4% | growth at 10 µM (SNB-19): 23.7% | growth at 10 µM (IGROV-1): -7.69% | growth at 10 µM (Malme-3M): -23% | GI50 (MCF7): 1.08 µM | TGI (MCF7): 3.88 µM | CC50 (MCF7; [9]): 15 µM | growth at 10 µM (NCI-H522): -43.6% | growth at 10 µM (NCI-H226): 4.49% | growth at 10 µM (KM12 [7]): -16.4% | GI50 (RXF 393 [8]): 1.33 µM | TGI (RXF 393 [8]): 4.21 µM | CC50 (RXF 393 [8]; [9]): 15 µM | growth at 10 µM (SK-MEL-5): -73.4% | growth at 10 µM (K562): -9.54%

COc1cc2cc(Oc3ccc(NC(=O)Nc4ccccc4)cc3)c(C)nc2cc1OC
growth at 10 µM (RXF 393 [1]): 76.7% | growth at 10 µM (CCRF-CEM): 55.2% | growth at 10 µM (RPMI-8226): 38.8% | growth at 10 µM (PC-3): 60.4% | growth at 10 µM (SW-620): 105% | growth at 10 µM (SF-295): 54% | growth at 10 µM (LOX IMVI): 82.1% | growth at 10 µM (UACC-62 [3]): 88.4% | growth at 10 µM (ACHN): 84.5% | growth at 10 µM (MDA-MB-468): 35.3% | growth at 10 µM (HT-29): 48.9% | growth at 10 µM (HOP-62): 103% | growth at 10 µM (M14): 93.7% | growth at 10 µM (UO-31): 65.9% | growth at 10 µM (EKVX [6]): 63.4% | growth at 10 µM (MDA-MB-231): 80% | growth at 10 µM (A498): 54% | growth at 10 µM (SNB-19): 94.8% | growth at 10 µM (IGROV-1): 103% | growth at 10 µM (Malme-3M): 86.4% | growth at 10 µM (NCI-H522): 67.2% | growth at 10 µM (NCI-H226): 39.8% | growth at 10 µM (KM12 [7]): 70.3% | growth at 10 µM (SK-MEL-5): 60.8% | growth at 10 µM (K562): 42.8%
